Tests used:
Assay type in all cases: functional, organism-based
Pseudomonas aeruginosa [1] = assay: Antibacterial activity against Levofloxacin-resistant Pseudomonas aeruginosa assessed as susceptible isolates at minimum inhibitory concentration of 2 ug/ml by CLSI broth microdilution method; design: scale not given: the % may be the effect or the level left
Pseudomonas aeruginosa [2] = assay: Antibacterial activity against Levofloxacin-resistant Pseudomonas aeruginosa assessed as susceptible isolates at minimum inhibitory concentration of 8 ug/ml by CLSI broth microdilution method; design: scale not given: the % may be the effect or the level left
Pseudomonas aeruginosa [3] = assay: Antibacterial activity against Meropenem-resistant Pseudomonas aeruginosa assessed as susceptible isolates at minimum inhibitory concentration of 1 ug/ml by CLSI broth microdilution method; design: scale not given: the % may be the effect or the level left
Pseudomonas aeruginosa [4] = assay: Antibacterial activity against Meropenem-resistant Pseudomonas aeruginosa assessed as susceptible isolates at minimum inhibitory concentration of 4 ug/ml by CLSI broth microdilution method; design: scale not given: the % may be the effect or the level left
Pseudomonas aeruginosa [5] = assay: Antibacterial activity against Piperacillin-resistant Pseudomonas aeruginosa assessed as susceptible isolates at minimum inhibitory concentration of 4 ug/ml by CLSI broth microdilution method; design: scale not given: the % may be the effect or the level left
Pseudomonas aeruginosa [6] = assay: Antibacterial activity against MDR3 Pseudomonas aeruginosa assessed as susceptible isolates at minimum inhibitory concentration of 0.5 ug/ml by CLSI broth microdilution method; design: scale not given: the % may be the effect or the level left
Pseudomonas aeruginosa [7] = assay: Antibacterial activity against MDR3 Pseudomonas aeruginosa assessed as susceptible isolates at minimum inhibitory concentration of 1 ug/ml by CLSI broth microdilution method; design: scale not given: the % may be the effect or the level left
Pseudomonas aeruginosa [8] = assay: Antibacterial activity against MDR Pseudomonas aeruginosa assessed as susceptible isolates at minimum inhibitory concentration of 0.5 ug/ml by CLSI broth microdilution method; design: scale not given: the % may be the effect or the level left
Pseudomonas aeruginosa [9] = assay: Antibacterial activity against MDR Pseudomonas aeruginosa assessed as susceptible isolates at minimum inhibitory concentration of 2 ug/ml by CLSI broth microdilution method; design: scale not given: the % may be the effect or the level left
Pseudomonas aeruginosa [10] = assay: Antibacterial activity against Pseudomonas aeruginosa assessed as intermediate isolates at 4 ug/ml by CLSI broth microdilution method
Pseudomonas aeruginosa [11] = assay: Antibacterial activity against tazobactam-resistant Pseudomonas aeruginosa assessed as susceptible isolates at minimum inhibitory concentration of 2 ug/ml by CLSI broth microdilution method; design: scale not given: the % may be the effect or the level left
Pseudomonas aeruginosa [12] = assay: Antibacterial activity against tazobactam-resistant Pseudomonas aeruginosa assessed as susceptible isolates at minimum inhibitory concentration of 4 ug/ml by CLSI broth microdilution method; design: scale not given: the % may be the effect or the level left
Serratia marcescens [13] = assay: Antibacterial activity against Serratia marcescens assessed as susceptible isolates at minimum inhibitory concentration of 0.5 ug/ml by CLSI broth microdilution method; design: scale not given: the % may be the effect or the level left
Proteus mirabilis [14] = assay: Antibacterial activity against Proteus mirabilis assessed as susceptible isolates at minimum inhibitory concentration of 8 ug/ml by CLSI broth microdilution method; design: scale not given: the % may be the effect or the level left
Proteus mirabilis [15] = assay: Antibacterial activity against Proteus mirabilis assessed as susceptible isolates at minimum inhibitory concentration of 0.5 ug/ml by CLSI broth microdilution method; design: scale not given: the % may be the effect or the level left
Enterobacter cloacae [16] = assay: Antibacterial activity against Enterobacter cloacae assessed as susceptible isolates at minimum inhibitory concentration of >16 ug/ml by CLSI broth microdilution method; design: scale not given: the % may be the effect or the level left
Enterobacter cloacae [17] = assay: Antibacterial activity against Enterobacter cloacae assessed as susceptible isolates at minimum inhibitory concentration of 8 ug/ml by CLSI broth microdilution method; design: scale not given: the % may be the effect or the level left
Enterobacter cloacae [18] = assay: Antibacterial activity against Enterobacter cloacae assessed as susceptible isolates at minimum inhibitory concentration of 0.12 ug/ml by CLSI broth microdilution method; design: scale not given: the % may be the effect or the level left
Klebsiella pneumoniae [19] = assay: Antibacterial activity against ESBL-producing Klebsiella pneumoniae assessed as susceptible isolates at minimum inhibitory concentration of >16 ug/ml by CLSI broth microdilution method; design: scale not given: the % may be the effect or the level left
Klebsiella pneumoniae [20] = assay: Antibacterial activity against ESBL-producing Klebsiella pneumoniae assessed as susceptible isolates at minimum inhibitory concentration of 4 ug/ml by CLSI broth microdilution method; design: scale not given: the % may be the effect or the level left
Klebsiella pneumoniae [21] = assay: Antibacterial activity against ESBL-producing Klebsiella pneumoniae assessed as susceptible isolates at minimum inhibitory concentration of 1 ug/ml by CLSI broth microdilution method; design: scale not given: the % may be the effect or the level left
Klebsiella pneumoniae [22] = assay: Antibacterial activity against ESBL-producing Klebsiella pneumoniae assessed as susceptible isolates at minimum inhibitory concentration of 0.25 ug/ml by CLSI broth microdilution method; design: scale not given: the % may be the effect or the level left
Pseudomonas aeruginosa [23] = assay: Antibacterial activity against Pseudomonas aeruginosa assessed as susceptible isolates at minimum inhibitory concentration of 16 ug/ml by CLSI broth microdilution method; design: scale not given: the % may be the effect or the level left
Pseudomonas aeruginosa [24] = assay: Antibacterial activity against Pseudomonas aeruginosa assessed as susceptible isolates at minimum inhibitory concentration of 0.12 ug/ml by CLSI broth microdilution method; design: scale not given: the % may be the effect or the level left
Escherichia coli [25] = assay: Antibacterial activity against ESBL-producing Escherichia coli assessed as susceptible isolates at minimum inhibitory concentration of 16 ug/ml by CLSI broth microdilution method; design: scale not given: the % may be the effect or the level left
Escherichia coli [26] = assay: Antibacterial activity against ESBL-producing Escherichia coli assessed as susceptible isolates at minimum inhibitory concentration of 2 ug/ml by CLSI broth microdilution method; design: scale not given: the % may be the effect or the level left
Escherichia coli [27] = assay: Antibacterial activity against ESBL-producing Escherichia coli assessed as susceptible isolates at minimum inhibitory concentration of 0.12 ug/ml by CLSI broth microdilution method; design: scale not given: the % may be the effect or the level left
Escherichia coli [28] = assay: Antibacterial activity against ESBL-producing Escherichia coli assessed as susceptible isolates at minimum inhibitory concentration of <=0.06 ug/ml by CLSI broth microdilution method; design: scale not given: the % may be the effect or the level left
Klebsiella oxytoca = assay: Antibacterial activity against Klebsiella oxytoca assessed as susceptible isolates at minimum inhibitory concentration of >16 ug/ml by CLSI broth microdilution method; design: scale not given: the % may be the effect or the level left
[29] = tested on: Stenotrophomonas maltophilia; assay: Antibacterial activity against Stenotrophomonas maltophilia assessed as susceptible isolates at minimum inhibitory concentration of <=0.06 ug/ml by CLSI broth microdilution method; design: scale not given: the % may be the effect or the level left
[30] = tested on: Stenotrophomonas maltophilia; assay: Antibacterial activity against Stenotrophomonas maltophilia assessed as susceptible isolates at minimum inhibitory concentration of 0.12 ug/ml by CLSI broth microdilution method; design: scale not given: the % may be the effect or the level left
[31] = tested on: Stenotrophomonas maltophilia; assay: Antibacterial activity against Stenotrophomonas maltophilia assessed as susceptible isolates at minimum inhibitory concentration of 0.5 ug/ml by CLSI broth microdilution method; design: scale not given: the % may be the effect or the level left
[32] = tested on: Stenotrophomonas maltophilia; assay: Antibacterial activity against Stenotrophomonas maltophilia assessed as susceptible isolates at minimum inhibitory concentration of 4 ug/ml by CLSI broth microdilution method; design: scale not given: the % may be the effect or the level left
Klebsiella aerogenes [33] = assay: Antibacterial activity against Enterobacter aerogenes assessed as susceptible isolates at minimum inhibitory concentration of 0.5 ug/ml by CLSI broth microdilution method; design: scale not given: the % may be the effect or the level left
Klebsiella aerogenes [34] = assay: Antibacterial activity against Enterobacter aerogenes assessed as susceptible isolates at minimum inhibitory concentration of 4 ug/ml by CLSI broth microdilution method; design: scale not given: the % may be the effect or the level left
Acinetobacter baumannii = assay: Antibacterial activity against Acinetobacter baumannii assessed as susceptible isolates at minimum inhibitory concentration of 0.5 ug/ml by CLSI broth microdilution method; design: scale not given: the % may be the effect or the level left
Pseudomonas aeruginosa [35] = assay: Antibacterial activity against Ciprofloxacin-resistant Pseudomonas aeruginosa assessed as susceptible isolates at minimum inhibitory concentration of 4 ug/ml by CLSI broth microdilution method; design: scale not given: the % may be the effect or the level left
Pseudomonas aeruginosa [36] = assay: Antibacterial activity against Ciprofloxacin-resistant Pseudomonas aeruginosa assessed as susceptible isolates at minimum inhibitory concentration of 8 ug/ml by CLSI broth microdilution method; design: scale not given: the % may be the effect or the level left
Pseudomonas aeruginosa [37] = assay: Antibacterial activity against Gentamicin-resistant Pseudomonas aeruginosa assessed as susceptible isolates at minimum inhibitory concentration of 0.5 ug/ml by CLSI broth microdilution method; design: scale not given: the % may be the effect or the level left
Serratia marcescens [38] = assay: Antibacterial activity against Serratia marcescens assessed as susceptible isolates at minimum inhibitory concentration of 8 ug/ml by CLSI broth microdilution method; design: scale not given: the % may be the effect or the level left

COLISTIN
Activity (Pseudomonas aeruginosa [1]): 92.2%
Activity (Pseudomonas aeruginosa [2]): 98.2%
Activity (Pseudomonas aeruginosa [3]): 33.3%
Activity (Pseudomonas aeruginosa [4]): 100%
Activity (Pseudomonas aeruginosa [5]): 100%
Activity (Pseudomonas aeruginosa [6]): 4%
Activity (Pseudomonas aeruginosa [7]): 36%
Activity (Pseudomonas aeruginosa [8]): 5.3%
Activity (Pseudomonas aeruginosa [9]): 100%
Activity (Pseudomonas aeruginosa [10]): 7.3%
Activity (Pseudomonas aeruginosa [11]): 92.9%
Activity (Pseudomonas aeruginosa [12]): 100%
Activity (Serratia marcescens [13]): 0%
Activity (Proteus mirabilis [14]): 0%
Activity (Proteus mirabilis [15]): 0%
Activity (Enterobacter cloacae [16]): 100%
Activity (Enterobacter cloacae [17]): 85.5%
Activity (Enterobacter cloacae [18]): 1.6%
Activity (Klebsiella pneumoniae [19]): 100%
Activity (Klebsiella pneumoniae [20]): 97.7%
Activity (Klebsiella pneumoniae [21]): 95%
Activity (Klebsiella pneumoniae [22]): 10.5%
Activity (Pseudomonas aeruginosa [23]): 99.1%
Activity (Pseudomonas aeruginosa [24]): 0%
Activity (Escherichia coli [25]): 99.7%
Activity (Escherichia coli [26]): 99.4%
Activity (Escherichia coli [27]): 1.2%
Activity (Escherichia coli [28]): 0.1%
Activity (Klebsiella oxytoca): 100%
Activity [29]: 0%
Activity [30]: 0%
Activity [31]: 4.8%
Activity [32]: 33.7%
Activity (Klebsiella aerogenes [33]): 73%
Activity (Klebsiella aerogenes [34]): 100%
Activity (Acinetobacter baumannii): 6.5%
Activity (Pseudomonas aeruginosa [35]): 98.6%
Activity (Pseudomonas aeruginosa [36]): 98.6%
Activity (Pseudomonas aeruginosa [37]): 3.8%
Activity (Serratia marcescens [38]): 1.9%

Source: ChEMBL document CHEMBL1671673, “In vitro activity of colistin (polymyxin E) against 3,480 isolates of gram-negative bacilli obtained from patients in Canadian hospitals in the CANWARD study, 2007-2008” (Antimicrob Agents Chemother, 2009)
